Results taken from PMC10328743, “5-Nitro-3-(2-(4-phenylthiazol-2-yl)hydrazineylidene)indolin-2-one derivatives inhibit HIV-1 replication by a multitarget mechanism of action” (Frontiers in Cellular and Infection Microbiology, 2023).

Legend:
[1] = biological target: T1, HIV-1 IN (LEDGF/p75-dependent) (Human immunodeficiency virus type 1 group M subtype B, UniProt P12497); test: biochemical; format: biochemical; settings: strand-transfer activity in the presence of LEDGF/p75; for IC50: read-out: IC50 IN LEDGF-dependent integration
T1 construct: Preparation of recombinant full-length IN and LEDGF proteins; made in house; host or cells: E. coli BL21(DE3)
Description: (§1) Proteins were expressed in E. coli BL21(DE3). Briefly, His-IN was purified by loading the precipitate of cell lysate onto a Ni-Sepharose column and eluting with a […] imidazole gradient (0–500 mM) in a HEPES buffer (50 mM, pH 7.5) containing NaCl (1 M), CHAPS (7.5 mM), and β-mercaptoethanol (2 mM). FLAG-IN was purified by loading the precipitate of cell lysate onto a phenyl-sepharose and ammonium sulfate gradient (0–800 mM) in a HEPES (pH 7.5, 50 mM) buffer containing NaCl (200 mM), CHAPS (7.5 mM), and β-mercaptoethanol (2 mM). Peak fractions were pooled, loaded onto a heparin column, and eluted with an increasing NaCl gradient (200 mM to 1 M) in a HEPES (pH 7.5, 50 mM) buffer containing CHAPS (7.5 mm) and β-mercaptoethanol (2 mM). Fractions containing integrase were pooled and stored in glycerol (10%) at −80°C.
Briefly, IN (50 nM) was preincubated with increasing concentrations of compounds for 1 h at room temperature in a reaction buffer containing HEPES (20 mM, pH 7.5), DTT (1 mM), glycerol (1%), MgCl2 (20 mM), Brij-35 (0.05%), and bovine serum albumin (BSA) (0.1 mg/ml).

[2] = biological target: T2, HIV-1 RT-associated RDDP (Human immunodeficiency virus type 1 group M subtype B, UniProt P04585); test: HIV-1 RNA-dependent DNA polymerase activity determination; format: biochemical; settings: wt HIV-1 RT; three independent experiments, average ± standard deviation; read-out: RDDP IC50
T2 construct: The 1:1 ratio between the p66/p51 subunits was also verified; His tag (implied only by Ni-NTA IMAC purification); made in house; host or cells: Escherichia coli M15
Description: Escherichia coli strain M15 containing the p6HRT-prot vector (provided by Stuart Le Grice laboratory (NCI Frederick)) was grown to an optical density at 600 nm of 0.7 and induced with 1.7 mM of isopropyl β-D-1-thiogalactopyranoside (IPTG) for 4 h. Protein purification was carried out with a BioLogic LP system (Bio-Rad, Hercules, CA, USA) using a combination of immobilized metal affinity chromatography (IMAC) and ion exchange chromatography. Cell pellets were resuspended in lysis buffer (50 mM of sodium phosphate buffer, pH 7.8, containing 0.5 mg/mL of lysozyme), incubated on ice for 20 min, and, after the addition of NaCl to a final concentration of 0.3 M, were sonicated and centrifuged at 30,000 ×g for 1 h. The supernatant was loaded onto a Ni^2+-NTA-Sepharose column pre-equilibrated with loading buffer (50 mM of sodium phosphate buffer, pH 7.8, containing 0.3 M of NaCl, 10% glycerol, and 10 mM of imidazole) and washed thoroughly with wash buffer (50 mM of sodium phosphate buffer, pH 6.0, containing 0.3 M of NaCl, 10% glycerol, and 80 mM of imidazole). RT was eluted with an imidazole gradient in the wash buffer (0–0.5 M). Fractions were collected, and protein purity was checked by sodium dodecyl sulfate–polyacrylamide gel electrophoresis (SDS-PAGE) and found to be higher than 90%. The 1:1 ratio between the p66/p51 subunits was also verified. Enzyme-containing fractions were pooled and diluted 1:1 with 50 mM of sodium phosphate buffer, pH 7.0, containing 10% glycerol, and then loaded into a Hi-trap heparin HP GE (Healthcare LifeScience) pre-equilibrated with 10 column volumes of loading buffer (50 mM of sodium phosphate buffer, pH 7.0, containing 10% glycerol, and 150 mM of NaCl). The column was then washed with loading buffer, and the RT was eluted with Elute Buffer 2 (50 mM of sodium phosphate, pH 7.0, 10% glycerol, 1 M of NaCl). Fractions were collected, and the protein was dialyzed and stored in a buffer containing 50 mM of Tris-HCl, pH 7.0, 25 mM of NaCl, 1 mM of EDTA, and 50% glycerol. Catalytic activities and protein concentrations were determined. Enzyme-containing fractions were pooled, and aliquots were stored at −80°C.
RDDP activity was measured as previously reported in 25-µl volume containing 60 mM of Tris‐HCl buffer, pH 8.1, 8 mM of MgCl2, 60 mM of KCl, 13 mM of DTT, 2.5 µM of poly(A)-oligo(dT), 100 µM of dTTP, increasing concentrations of inhibitors, whose dilution were made in water, and different amounts of enzymes according to a linear range of the dose–response curve. The reaction mixture was incubated for 30 min at 37°C and then stopped by the addition of EDTA. Reaction products were detected by pico green addition and measured with a multilabel counter plate reader Victor 3, equipped with filters for 502/523 nm.

[3] = Viability of infected MT4 cells (cytotoxicity); format: cell-based; settings: human, MT4 cells infected with HIV-1; infected MT4 cells viability; three independent experiments, average ± standard deviation
Description: (§2) HIV-1 replication was carried out in MT4 cells as previously reported ([Corona et al., 2016a]) using a molecular clone derived from the pNL4-3 ([Thierry et al., 2015]). A total of 120 ng of p24^gag antigen per 10^6 cells, corresponding to a multiplicity of infection (m.o.i.) of 0.3, was used for infection. […] Flow cytometry analysis was performed on a FACSCalibur flow cytometer (BD Biosciences, San Jose, CA, USA), and the results were analyzed using the […] software.

[4] = test system: MT4 cells; test: Viability of infected MT4 cells (cytotoxicity); format: cell-based; settings: no toxicity up to the highest concentration tested
Description: as §2

[5] = biological target: T3, HIV-1 IN-IN subunit exchange (Human immunodeficiency virus type 1 group M subtype B, UniProt P12497); test: HTRF-based IN subunit exchange assay; format: binding
T3 construct: Preparation of recombinant full-length IN and LEDGF proteins; made in house; host or cells: E. coli BL21(DE3)
Description: as §1
His and FLAG-tagged INs were mixed in Tris (pH 7.4, 25 mm) buffer containing NaCl (150 mm), MgCl2 (2 mM), Nonidet P-40 (0.1%), and BSA (1 mg/ml). Test compounds were then added to the mixture, and incubation was carried out for 2.5 h at room temperature.

Structure (SMILES) | IC50 IN LEDGF-dependent integration [1] | IC50 [1] [µM] | IC50 [2] [µM] | CC50 [3] [µM] | toxicity against MT4 cells [4] [µM] | IC50 [5] [µM]
O=C1Nc2ccc(Cl)cc2/C1=N/Nc1nc(-c2ccc(Cl)c(Cl)c2)cs1 [9b] | not able to inhibit IN | > 100 | 24 ± 3 | > 100 | > 100 | > 100
Cc1ccc(-c2csc(N/N=C3\C(=O)Nc4ccc([N+](=O)[O-])cc43)n2)cc1 [10a] | – | 32.3 ± 2.7 | 18 ± 1.5 | > 100 | > 100 | 11.5 ± 1.5
